Key:
Assay in all cases: biochemical
TSSK3 = TSSK3 (Homo sapiens, UniProt Q96PN8)
In short: (§1)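 Human kinases phosphorylating kinase-specific synthetic peptides, assayed by mobility shift (MSA) or IMAP fluorescence polarization, in 20 mM HEPES pH 7.5, 0.01% Triton X-100, 2 mM DTT with substrate/ATP-metal. Reactions ran 1 or 5 h at room temperature; activity = P/(P + S) from product and substrate peak heights.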

IKKβ = molecular target: T1, IKKβ (Homo sapiens, UniProt O14920)
T1 construct: gene IKBKB
In short: as §1

MAPKAPK2 = MAPKAPK2 (Homo sapiens, UniProt P49137)
In short: as §1

ALK(C1156Y) = ALK(C1156Y) (Homo sapiens, UniProt Q9UM73, C1156Y)
In short: as §1

PDGFRβ = molecular target: T2, PDGFRβ (Homo sapiens, UniProt P09619)
T2 construct: gene PDGFRB
In short: as §1

BTK = BTK (Homo sapiens, UniProt Q06187)
In short: as §1

CK1γ2 = molecular target: T3, CK1γ2 (Homo sapiens, UniProt P78368)
T3 construct: gene CSNK1G2
In short: as §1

skMLCK = molecular target: T4, skMLCK (Homo sapiens, UniProt Q9H1R3)
T4 construct: gene MYLK2
In short: as §1

IRAK1 = IRAK1 (Homo sapiens, UniProt P51617)
In short: as §1

EPHA7 = EPHA7 (Homo sapiens, UniProt Q15375)
In short: as §1

MER = molecular target: T5, MER (Homo sapiens, UniProt Q12866)
T5 construct: gene MERTK
T5 sequence (Q12866 whole entry): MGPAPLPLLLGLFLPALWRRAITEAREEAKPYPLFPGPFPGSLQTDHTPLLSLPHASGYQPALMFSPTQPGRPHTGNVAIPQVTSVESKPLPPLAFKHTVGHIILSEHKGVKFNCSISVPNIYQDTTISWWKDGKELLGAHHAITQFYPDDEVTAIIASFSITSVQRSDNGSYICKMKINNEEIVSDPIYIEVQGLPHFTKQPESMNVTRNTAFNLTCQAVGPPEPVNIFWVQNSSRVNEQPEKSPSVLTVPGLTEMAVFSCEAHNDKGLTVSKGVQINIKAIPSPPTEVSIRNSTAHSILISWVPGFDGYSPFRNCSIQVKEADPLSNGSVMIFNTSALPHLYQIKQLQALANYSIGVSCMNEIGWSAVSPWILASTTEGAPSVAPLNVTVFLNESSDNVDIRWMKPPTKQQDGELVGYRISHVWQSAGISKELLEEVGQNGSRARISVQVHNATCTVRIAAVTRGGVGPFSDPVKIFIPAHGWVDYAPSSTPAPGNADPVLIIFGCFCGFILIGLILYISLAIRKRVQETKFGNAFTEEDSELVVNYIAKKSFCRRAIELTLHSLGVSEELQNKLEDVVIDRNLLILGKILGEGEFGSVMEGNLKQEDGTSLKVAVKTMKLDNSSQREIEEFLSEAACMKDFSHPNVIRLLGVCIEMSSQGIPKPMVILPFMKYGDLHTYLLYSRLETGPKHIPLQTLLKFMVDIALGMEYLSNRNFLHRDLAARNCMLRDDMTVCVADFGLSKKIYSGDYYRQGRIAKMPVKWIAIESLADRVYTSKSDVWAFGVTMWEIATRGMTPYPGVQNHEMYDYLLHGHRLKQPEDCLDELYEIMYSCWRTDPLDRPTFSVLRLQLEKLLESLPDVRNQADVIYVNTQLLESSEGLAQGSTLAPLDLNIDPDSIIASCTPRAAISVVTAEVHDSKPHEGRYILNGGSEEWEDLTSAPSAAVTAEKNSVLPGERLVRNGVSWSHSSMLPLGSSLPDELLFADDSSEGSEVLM
In short: as §1

ARG = molecular target: T6, ARG (Homo sapiens, UniProt P42684)
T6 construct: gene ABL2
T6 sequence (P42684 whole entry): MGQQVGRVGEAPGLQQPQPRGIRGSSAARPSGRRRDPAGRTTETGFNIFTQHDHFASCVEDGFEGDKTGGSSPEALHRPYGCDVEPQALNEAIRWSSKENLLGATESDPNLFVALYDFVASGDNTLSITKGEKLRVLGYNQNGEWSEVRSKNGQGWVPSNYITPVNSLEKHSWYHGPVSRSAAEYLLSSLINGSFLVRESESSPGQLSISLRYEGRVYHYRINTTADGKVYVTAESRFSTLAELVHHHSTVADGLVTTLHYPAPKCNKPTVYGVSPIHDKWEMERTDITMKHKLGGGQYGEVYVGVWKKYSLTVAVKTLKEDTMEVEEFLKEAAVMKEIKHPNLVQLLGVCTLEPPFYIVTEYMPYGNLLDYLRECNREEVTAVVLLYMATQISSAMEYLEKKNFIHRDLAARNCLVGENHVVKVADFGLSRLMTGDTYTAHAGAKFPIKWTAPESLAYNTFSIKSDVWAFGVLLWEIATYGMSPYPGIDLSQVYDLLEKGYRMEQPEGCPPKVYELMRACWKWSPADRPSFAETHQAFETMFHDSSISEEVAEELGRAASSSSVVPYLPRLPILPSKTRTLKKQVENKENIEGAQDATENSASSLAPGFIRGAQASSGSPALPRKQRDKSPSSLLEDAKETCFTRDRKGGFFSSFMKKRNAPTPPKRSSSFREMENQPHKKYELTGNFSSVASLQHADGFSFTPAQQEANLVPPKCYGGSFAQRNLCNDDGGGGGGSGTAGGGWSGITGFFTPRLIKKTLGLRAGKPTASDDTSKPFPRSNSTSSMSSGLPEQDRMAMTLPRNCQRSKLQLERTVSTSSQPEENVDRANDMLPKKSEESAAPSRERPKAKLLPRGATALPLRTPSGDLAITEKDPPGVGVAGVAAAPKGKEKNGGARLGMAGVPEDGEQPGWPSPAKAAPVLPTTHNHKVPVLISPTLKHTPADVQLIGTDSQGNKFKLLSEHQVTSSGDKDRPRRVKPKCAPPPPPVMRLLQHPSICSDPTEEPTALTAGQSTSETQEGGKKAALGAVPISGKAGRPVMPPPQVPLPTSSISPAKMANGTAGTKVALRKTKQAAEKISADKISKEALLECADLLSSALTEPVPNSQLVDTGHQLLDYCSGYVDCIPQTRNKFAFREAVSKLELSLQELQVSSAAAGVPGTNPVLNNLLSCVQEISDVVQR
In short: as §1

SYK = SYK (Homo sapiens, UniProt P43405)
In short: as §1

MARK1 = MARK1 (Homo sapiens, UniProt Q9P0L2)
In short: as §1

MST2 = molecular target: T7, MST2 (Homo sapiens, UniProt Q13188)
T7 construct: gene STK3
In short: as §1

MAP4K2 = MAP4K2 (Homo sapiens, UniProt Q12851)
In short: as §1

MELK = MELK (Homo sapiens, UniProt Q14680)
In short: as §1

JAK2 = JAK2 (Homo sapiens, UniProt O60674)
In short: as §1

TNIK = TNIK (Homo sapiens, UniProt Q9UKE5)
In short: as §1

TEC = TEC (Homo sapiens, UniProt P42680)
In short: as §1

RET = RET (Homo sapiens, UniProt P07949)
In short: as §1

EEF2K = EEF2K (Homo sapiens, UniProt O00418)
EEF2K, sequence (O00418 whole entry): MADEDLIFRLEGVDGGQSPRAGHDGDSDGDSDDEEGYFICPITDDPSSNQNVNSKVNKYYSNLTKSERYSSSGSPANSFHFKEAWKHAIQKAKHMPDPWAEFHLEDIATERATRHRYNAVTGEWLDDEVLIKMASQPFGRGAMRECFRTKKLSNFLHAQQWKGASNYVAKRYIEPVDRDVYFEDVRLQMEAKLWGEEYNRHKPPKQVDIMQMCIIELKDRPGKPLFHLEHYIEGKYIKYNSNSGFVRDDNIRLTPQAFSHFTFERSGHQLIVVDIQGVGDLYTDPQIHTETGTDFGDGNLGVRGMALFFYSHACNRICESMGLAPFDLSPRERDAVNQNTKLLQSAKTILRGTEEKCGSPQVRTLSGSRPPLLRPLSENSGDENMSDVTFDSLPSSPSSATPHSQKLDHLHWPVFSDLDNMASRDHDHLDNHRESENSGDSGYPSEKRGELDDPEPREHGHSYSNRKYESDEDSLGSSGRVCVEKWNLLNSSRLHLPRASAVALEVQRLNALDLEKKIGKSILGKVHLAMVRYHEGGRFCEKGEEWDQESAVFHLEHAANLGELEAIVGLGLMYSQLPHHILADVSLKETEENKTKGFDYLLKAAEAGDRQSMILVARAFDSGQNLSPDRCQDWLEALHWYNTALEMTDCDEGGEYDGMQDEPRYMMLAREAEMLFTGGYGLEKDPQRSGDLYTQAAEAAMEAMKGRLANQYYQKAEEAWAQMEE
In short: as §1

PKD1 = molecular target: T8, PKD1 (Homo sapiens, UniProt Q15139)
T8 construct: gene PRKD1
In short: as §1

RET(S891A) = RET(S891A) (Homo sapiens, UniProt P07949, S891A)
In short: as §1

CDK9/CycT1 = CDK9/CycT1 (Homo sapiens, UniProt P50750)
In short: as §1

CaMK2β = molecular target: T9, CaMK2β (Homo sapiens, UniProt Q13554)
T9 construct: gene CAMK2B
T9 sequence (Q13554 whole entry): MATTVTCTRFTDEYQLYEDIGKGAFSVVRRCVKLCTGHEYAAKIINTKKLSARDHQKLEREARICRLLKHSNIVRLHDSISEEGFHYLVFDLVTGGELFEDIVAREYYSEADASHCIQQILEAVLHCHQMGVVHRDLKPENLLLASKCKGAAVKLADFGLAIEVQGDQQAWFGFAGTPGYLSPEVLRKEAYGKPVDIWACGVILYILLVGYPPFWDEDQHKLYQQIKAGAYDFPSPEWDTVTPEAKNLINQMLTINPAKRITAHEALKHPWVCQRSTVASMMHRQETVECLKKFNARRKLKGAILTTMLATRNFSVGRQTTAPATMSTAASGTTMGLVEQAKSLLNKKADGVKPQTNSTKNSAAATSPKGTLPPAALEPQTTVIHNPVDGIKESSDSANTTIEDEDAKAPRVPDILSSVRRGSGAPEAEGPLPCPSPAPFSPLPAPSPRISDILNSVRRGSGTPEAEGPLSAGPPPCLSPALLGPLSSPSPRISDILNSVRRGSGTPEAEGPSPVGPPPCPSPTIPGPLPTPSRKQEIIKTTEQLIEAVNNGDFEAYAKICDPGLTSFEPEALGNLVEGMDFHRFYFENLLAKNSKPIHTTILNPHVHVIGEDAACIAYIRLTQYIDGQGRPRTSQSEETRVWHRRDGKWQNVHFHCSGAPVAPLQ
In short: as §1

CK2α1/β = molecular target: T10, CK2α1/β (Homo sapiens, UniProt P68400)
T10 construct: gene CSNK2A1
In short: as §1

MUSK = MUSK (Homo sapiens, UniProt O15146)
In short: as §1

SRPK2 = SRPK2 (Homo sapiens, UniProt P78362)
SRPK2, sequence (P78362 whole entry): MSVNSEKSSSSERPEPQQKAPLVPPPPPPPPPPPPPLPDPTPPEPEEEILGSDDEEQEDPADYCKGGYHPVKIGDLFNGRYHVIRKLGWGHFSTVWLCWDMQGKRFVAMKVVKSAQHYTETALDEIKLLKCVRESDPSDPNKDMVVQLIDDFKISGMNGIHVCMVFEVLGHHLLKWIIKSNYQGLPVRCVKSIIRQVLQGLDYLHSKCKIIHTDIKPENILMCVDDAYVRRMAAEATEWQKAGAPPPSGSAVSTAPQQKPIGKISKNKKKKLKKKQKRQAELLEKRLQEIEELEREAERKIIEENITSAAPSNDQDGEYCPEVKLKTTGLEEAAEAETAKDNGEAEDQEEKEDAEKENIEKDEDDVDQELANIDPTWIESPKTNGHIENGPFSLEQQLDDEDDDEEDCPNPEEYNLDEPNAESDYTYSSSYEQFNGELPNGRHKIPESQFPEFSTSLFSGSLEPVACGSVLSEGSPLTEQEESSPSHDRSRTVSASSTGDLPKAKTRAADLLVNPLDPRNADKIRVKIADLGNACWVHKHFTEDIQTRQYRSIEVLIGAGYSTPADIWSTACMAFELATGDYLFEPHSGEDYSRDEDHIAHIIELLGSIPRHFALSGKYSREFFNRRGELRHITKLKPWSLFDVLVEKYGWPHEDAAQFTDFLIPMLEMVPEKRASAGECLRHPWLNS
In short: as §1

PKCι = molecular target: T11, PKCι (Homo sapiens, UniProt P41743)
T11 construct: gene PRKCI
T11 sequence (P41743 whole entry): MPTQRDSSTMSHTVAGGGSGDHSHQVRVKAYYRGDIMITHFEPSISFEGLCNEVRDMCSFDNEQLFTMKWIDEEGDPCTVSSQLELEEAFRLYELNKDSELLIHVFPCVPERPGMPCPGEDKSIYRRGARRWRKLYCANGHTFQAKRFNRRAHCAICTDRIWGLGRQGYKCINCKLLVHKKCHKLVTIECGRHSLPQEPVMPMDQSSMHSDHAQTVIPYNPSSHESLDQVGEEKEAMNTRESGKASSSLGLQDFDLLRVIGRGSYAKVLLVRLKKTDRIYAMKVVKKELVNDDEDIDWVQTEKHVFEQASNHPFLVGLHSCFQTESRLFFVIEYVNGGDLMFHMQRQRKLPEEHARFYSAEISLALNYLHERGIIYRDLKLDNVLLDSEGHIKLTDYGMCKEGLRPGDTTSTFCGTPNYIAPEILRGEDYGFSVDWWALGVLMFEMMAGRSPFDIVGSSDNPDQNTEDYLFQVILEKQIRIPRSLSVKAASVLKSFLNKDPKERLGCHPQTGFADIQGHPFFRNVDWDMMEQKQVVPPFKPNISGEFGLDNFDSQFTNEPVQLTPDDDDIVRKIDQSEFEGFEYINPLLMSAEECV
In short: as §1

CK1γ1 = molecular target: T12, CK1γ1 (Homo sapiens, UniProt Q9HCP0)
T12 construct: gene CSNK1G1
In short: as §1

Compound: c1cc(-c2ccc3[nH]ncc3c2)ccn1 [TG693, 5-(4-pyridinyl)-1H-indazole]
- inhibition at 1 µM (TSSK3): 0.8%
- inhibition at 1 µM (IKKβ): 14.6%
- inhibition at 1 µM (MAPKAPK2): -26%
- inhibition at 1 µM (ALK(C1156Y)): 0.1%
- inhibition at 1 µM (PDGFRβ): 3%
- inhibition at 1 µM (BTK): -9.5%
- inhibition at 1 µM (CK1γ2): -3.2%
- inhibition at 1 µM (skMLCK): 0.9%
- inhibition at 1 µM (IRAK1): 4.2%
- inhibition at 1 µM (EPHA7): 5%
- inhibition at 1 µM (MER): 3%
- inhibition at 1 µM (ARG): 4.7%
- inhibition at 1 µM (SYK): -60.9%
- inhibition at 1 µM (MARK1): 13.3%
- inhibition at 1 µM (MST2): 0.5%
- inhibition at 1 µM (MAP4K2): 1.9%
- inhibition at 1 µM (MELK): 5.7%
- inhibition at 1 µM (JAK2): 7.9%
- inhibition at 1 µM (TNIK): 48.6%
- inhibition at 1 µM (TEC): -0.4%
- inhibition at 1 µM (RET): 4.8%
- inhibition at 1 µM (EEF2K): -15.2%
- inhibition at 1 µM (PKD1): -15.8%
- inhibition at 1 µM (RET(S891A)): -18%
- inhibition at 1 µM (CDK9/CycT1): 57.8%
- inhibition at 1 µM (CaMK2β): 2.8%
- inhibition at 1 µM (CK2α1/β): 3.5%
- inhibition at 1 µM (MUSK): -5%
- inhibition at 1 µM (SRPK2): 0.5%
- inhibition at 1 µM (PKCι): -6.8%
- inhibition at 1 µM (CK1γ1): 5%

From publication PMC5448077, “Development of an orally available inhibitor of CLK1 for skipping a mutated dystrophin exon in Duchenne muscular dystrophy” (Scientific Reports, 2017)
